Target: NLRP3 (Homo sapiens, UniProt Q96P20)
Experiment: THP-1 cells pyroptosis assay
Format: cell-based
Parameters: Seed THP-1 cells (25,000 cells/well) containing 1.0 μg/ml LPS; host or cells: THP-1
Conditions: LPS 1.0 μg/ml, nigericin 5 μM, resazurin readout, 10 μM top dose (Example 2: top dose of 30 μM)
Method in brief: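 THP-1 cells (25,000/well) primed with 1 μg/ml LPS in serum-free RPMI, treated with compound (8-point dilution, 10 μM top unless stated; 0.1% DMSO) 3 h at 37°C, then nigericin 5 μM 1 h. Viability read by resazurin (100 μM, 1-2 h) fluorescence; IC50 from 4-parameter fit.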

Chain of NLRP3 (Q96P20 whole entry): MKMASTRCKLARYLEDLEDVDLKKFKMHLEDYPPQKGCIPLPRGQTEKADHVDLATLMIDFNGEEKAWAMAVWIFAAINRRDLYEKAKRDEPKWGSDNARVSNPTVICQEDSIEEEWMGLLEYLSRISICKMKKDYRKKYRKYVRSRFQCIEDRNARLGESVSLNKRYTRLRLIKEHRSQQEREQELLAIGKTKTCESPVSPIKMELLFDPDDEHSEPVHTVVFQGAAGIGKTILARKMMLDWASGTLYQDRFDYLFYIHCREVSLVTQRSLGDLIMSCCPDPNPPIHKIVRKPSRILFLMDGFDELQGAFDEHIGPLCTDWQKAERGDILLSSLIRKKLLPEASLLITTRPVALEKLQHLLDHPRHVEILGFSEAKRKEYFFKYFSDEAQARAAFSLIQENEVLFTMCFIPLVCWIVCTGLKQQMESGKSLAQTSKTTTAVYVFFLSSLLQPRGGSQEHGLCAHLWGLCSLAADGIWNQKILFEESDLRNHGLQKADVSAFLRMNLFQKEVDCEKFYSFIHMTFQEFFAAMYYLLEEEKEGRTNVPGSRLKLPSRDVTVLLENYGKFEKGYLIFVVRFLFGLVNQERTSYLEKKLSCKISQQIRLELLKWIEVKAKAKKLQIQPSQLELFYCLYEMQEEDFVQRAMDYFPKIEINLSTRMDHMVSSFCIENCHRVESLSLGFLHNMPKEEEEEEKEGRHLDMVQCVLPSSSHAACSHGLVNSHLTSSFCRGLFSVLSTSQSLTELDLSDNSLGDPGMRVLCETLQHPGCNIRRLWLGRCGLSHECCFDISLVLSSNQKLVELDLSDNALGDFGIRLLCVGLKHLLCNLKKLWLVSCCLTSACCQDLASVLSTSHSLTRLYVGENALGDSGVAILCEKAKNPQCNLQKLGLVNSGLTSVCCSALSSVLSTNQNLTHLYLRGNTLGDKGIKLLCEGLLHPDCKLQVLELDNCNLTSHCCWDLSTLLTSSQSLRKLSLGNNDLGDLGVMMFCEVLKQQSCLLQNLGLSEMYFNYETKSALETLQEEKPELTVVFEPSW

Row | SMILES | IC50
1 | COc1cc(-c2cc(F)cc(C(C)C)c2Oc2nnc(S(=O)(=O)N3CCC(N(C)C)CC3)[nH]2)ccn1 [Example 253, 1-((5-(4-fluoro-2-isopropyl-6-(2-methoxypyridin-4-yl)phenoxy)-4H-1,2,4-triazol-3-yl)sulfonyl)-N,N-dimethylpiperidin-4-amine] | ≤ 5 µM
2 | O=S(=O)(c1nnc(Nc2c3c(cc4c2CCC4)CCC3)[nH]1)N1CCC2(CCCN2CCF)CC1 [Example 255, 5-((1-(2-fluoroethyl)-1,8-diazaspiro[4.5]decan-8-yl)sulfonyl)-N-(1,2,3,5,6,7-hexahydro-s-indacen-4-yl)-4H-1,2,4-triazol-3-amine] | ≤ 1 µM
3 | CCN1CCCC12CCN(S(=O)(=O)c1nnc(Nc3c4c(cc5c3CCC5)CCC4)[nH]1)CC2 [Example 256, 5-((1-ethyl-1,8-diazaspiro[4.5]decan-8-yl)sulfonyl)-N-(1,2,3,5,6,7-hexahydro-s-indacen-4-yl)-4H-1,2,4-triazol-3-amine] | ≤ 0.5 µM
4 | CN(C)S(=O)(=O)c1nnc(Nc2c3c(cc4c2CCC4)CCC3)[nH]1 [Example 262, 5-((1,2,3,5,6,7-hexahydro-s-indacen-4-yl)amino)-N,N-dimethyl-4H-1,2,4-triazole-3-sulfonamide] | ≤ 5 µM
5 | O=S(=O)(c1nnc(Nc2c3c(cc4c2CCC4)CCC3)[nH]1)N1CC2(CCN(CC(F)(F)F)C2)C1 [Example 263, N-(1,2,3,5,6,7-hexahydro-s-indacen-4-yl)-5-((6-(2,2,2-trifluoroethyl)-2,6-diazaspiro[3.4]octan-2-yl)sulfonyl)-4H-1,2,4-triazol-3-amine] | ≤ 5 µM
6 | O=S(=O)(c1nnc(Nc2c3c(cc4c2CCC4)CCC3)[nH]1)N1CC2(CCNC2)C1 [Example 265, 5-((2,6-diazaspiro[3.4]octan-2-yl)sulfonyl)-N-(1,2,3,5,6,7-hexahydro-s-indacen-4-yl)-4H-1,2,4-triazol-3-amine] | ≤ 5 µM
7 | O=S(=O)(c1nnc(Nc2c3c(cc4c2CCC4)CCC3)[nH]1)N1CCC2(CCNC2)CC1 [Example 266, 5-((2,8-diazaspiro[4.5]decan-8-yl)sulfonyl)-N-(1,2,3,5,6,7-hexahydro-s-indacen-4-yl)-4H-1,2,4-triazol-3-amine] | ≤ 5 µM
8 | O=S(=O)(c1nnc(Nc2c3c(cc4c2CCC4)CCC3)[nH]1)N1CCC2(CCCN2CC(F)(F)F)CC1 [Example 267, N-(1,2,3,5,6,7-hexahydro-s-indacen-4-yl)-5-((1-(2,2,2-trifluoroethyl)-1,8-diazaspiro[4.5]decan-8-yl)sulfonyl)-4H-1,2,4-triazol-3-amine] | ≤ 10 µM
9 | CN1C[C@H]2[C@@H]1CCN2S(=O)(=O)c1nnc(Nc2c3c(cc4c2CCC4)CCC3)[nH]1 [Example 269, N-(1,2,3,5,6,7-hexahydro-s-indacen-4-yl)-5-(((1S,5S)-6-methyl-2,6-diazabicyclo[3.2.0]heptan-2-yl)sulfonyl)-4H-1,2,4-triazol-3-amine] | ≤ 10 µM
10 | CC(C)(O)CNS(=O)(=O)c1nnc(Nc2c3c(cc4c2CCC4)CCC3)[nH]1 [Example 272, 5-((1,2,3,5,6,7-hexahydro-s-indacen-4-yl)amino)-N-(2-hydroxy-2-methylpropyl)-4H-1,2,4-triazole-3-sulfonamide] | ≤ 10 µM
11 | CN1CCCN(S(=O)(=O)c2nnc(Nc3c4c(cc5c3CCC5)CCC4)[nH]2)CC1 [Example 273, N-(1,2,3,5,6,7-hexahydro-s-indacen-4-yl)-5-((4-methyl-1,4-diazepan-1-yl)sulfonyl)-4H-1,2,4-triazol-3-amine] | ≤ 10 µM
12 | CN1CC2(CCN(S(=O)(=O)c3nnc(Nc4c5c(cc6c4CCC6)CCC5)[nH]3)CC2)C1 [Example 280, N-(1,2,3,5,6,7-hexahydro-s-indacen-4-yl)-5-((2-methyl-2,7-diazaspiro[3.5]nonan-7-yl)sulfonyl)-4H-1,2,4-triazol-3-amine] | ≤ 5 µM
13 | O=S(=O)(c1nnc(Nc2c3c(cc4c2CCC4)CCC3)[nH]1)N1CCn2cncc2C1 [Example 281, 5-((5,6-dihydroimidazo[1,5-a]pyrazin-7 (8H)-yl)sulfonyl)-N-(1,2,3,5,6,7-hexahydro-s-indacen-4-yl)-4H-1,2,4-triazol-3-amine] | ≤ 10 µM
14 | COC(C)(C)C1CCN(S(=O)(=O)c2nnc(Nc3c4c(cc5c3CCC5)CCC4)[nH]2)C1 (stereo not shown) [Example 282, N-(1,2,3,5,6,7-hexahydro-s-indacen-4-yl)-5-((3-(2-methoxypropan-2-yl)pyrrolidin-1-yl)sulfonyl)-4H-1,2,4-triazol-3-amine] | ≤ 5 µM
15 | COCC1CCN(S(=O)(=O)c2nnc(Nc3c4c(cc5c3CCC5)CCC4)[nH]2)C1 (stereo not shown) [Example 283, N-(1,2,3,5,6,7-hexahydro-s-indacen-4-yl)-5-((3-(methoxymethyl)pyrrolidin-1-yl)sulfonyl)-4H-1,2,4-triazol-3-amine] | ≤ 5 µM
16 | O=S(=O)(c1nnc(Nc2c3c(cc4c2CCC4)CCC3)[nH]1)N1CC[C@H](CO)C1 [Example 284, (S)-(1-((5-((1,2,3,5,6,7-hexahydro-s-indacen-4-yl)amino)-4H-1,2,4-triazol-3-yl)sulfonyl)pyrrolidin-3-yl)methanol] | ≤ 10 µM

Row | SMILES | IC50
17 | O=S(=O)(c1nnc(Nc2c3c(cc4c2CCC4)CCC3)[nH]1)N1CC(c2ccccn2)C1 [Example 285, N-(1,2,3,5,6,7-hexahydro-s-indacen-4-yl)-5-((3-(pyridin-2-yl)azetidin-1-yl)sulfonyl)-4H-1,2,4-triazol-3-amine] | ≤ 5 µM
18 | O=S(=O)(c1nnc(Nc2c3c(cc4c2CCC4)CCC3)[nH]1)N1CCC2(CC1)CNC2 [Example 287, 5-((2,7-diazaspiro[35]nonan-7-yl)sulfonyl)-N-(1,2,3,5,6,7-hexahydro-s-indacen-4-yl)-4H-1,2,4-triazol-3-amine] | ≤ 10 µM
19 | O=S(=O)(c1nnc(Nc2c3c(cc4c2CCC4)CCC3)[nH]1)N1CCC(F)(F)CC1 [Example 297, 5-((4,4-difluoropiperidin-1-yl)sulfonyl)-N-(1,2,3,5,6,7-hexahydro-s-indacen-4-yl)-4H-1,2,4-triazol-3-amine] | ≤ 10 µM
20 | O=S1(=O)CCN(S(=O)(=O)c2nnc(Nc3c4c(cc5c3CCC5)CCC4)[nH]2)CC1 [Example 298, 4-((5-((1,2,3,5,6,7-hexahydro-s-indacen-4-yl)amino)-4H-1,2,4-triazol-3-yl)sulfonyl)thiomorpholine 1,1-dioxide] | ≤ 10 µM
21 | NC(=O)c1ccccc1S(=O)(=O)c1n[nH]c(Nc2c3c(cc4c2CCC4)CCC3)n1 [Example 311, 2-((5-((1,2,3,5,6,7-hexahydro-s-indacen-4-yl)amino)-1H-1,2,4-triazol-3-yl)sulfonyl)benzamide] | ≤ 5 µM
22 | COc1cc(-c2c(C)cc3c(c2Nc2nnc(S(C)(=O)=O)[nH]2)CCC3)ccn1 [Example 312, N-(5-(2-methoxypyridin-4-yl)-6-methyl-2,3-dihydro-1H-inden-4-yl)-5-(methylsulfonyl)-4H-1,2,4-triazol-3-amine] | ≤ 5 µM
23 | O=S(=O)(c1nnc(Nc2c3c(cc4c2CCC4)CCC3)[nH]1)N1CCCC2(CCOC2)C1 (stereo not shown) [Example 313, 5-(2-oxa-7-azaspiro[4.5]decan-7-ylsulfonyl)-N-(1,2,3,5,6,7-hexahydro-s-indacen-4-yl)-4H-1,2,4-triazol-3-amine] | ≤ 5 µM
24 | O=S(=O)(c1nnc(Nc2c3c(cc4c2CCC4)CCC3)[nH]1)N1CCC2(CCOC2)C1 (stereo not shown) [Example 314, 5-(2-oxa-7-azaspiro[4.4]nonan-7-ylsulfonyl)-N-(1,2,3,5,6,7-hexahydro-s-indacen-4-yl)-4H-1,2,4-triazol-3-amine] | ≤ 5 µM
25 | CC(C)(O)C1CCCN(S(=O)(=O)c2nnc(Nc3c4c(cc5c3CCC5)CCC4)[nH]2)C1 (stereo not shown) [Example 315, 2-(1-((5-((1,2,3,5,6,7-hexahydro-s-indacen-4-yl)amino)-4H-1,2,4-triazol-3-yl)sulfonyl)piperidin-3-yl)propan-2-ol] | ≤ 5 µM
26 | Cc1cc2c(c(Nc3nnc(S(=O)(=O)N4CCC(N(C)C)CC4)[nH]3)c1-c1ccnc(OC3CCN(C)CC3)c1)CCC2 [Example 316, N,N-dimethyl-1-((5-((6-methyl-5-(2-((1-methylpiperidin-4-yl)oxy)pyridin-4-yl)-2,3-dihydro-1H-inden-4-yl)amino)-4H-1,2,4-triazol-3-yl)sulfonyl)piperidin-4-amine] | ≤ 5 µM
27 | CN1CCC(Oc2cc(-c3ccc4c(c3Nc3nnc(S(=O)(=O)N5CCC(N(C)C)CC5)[nH]3)CCC4)ccn2)CC1 [Example 321, N,N-dimethyl-1-((5-((5-(2-((1-methylpiperidin-4-yl)oxy)pyridin-4-yl)-2,3-dihydro-1H-inden-4-yl)amino)-4H-1,2,4-triazol-3-yl)sulfonyl)piperidin-4-amine] | ≤ 5 µM
28 | CS(=O)(=O)c1nnc(Nc2c3c(c(C#N)c4c2CCC4)CCC3)[nH]1 [Example 322, 8-((5-(methylsulfonyl)-4H-1,2,4-triazol-3-yl)amino)-1,2,3,5,6,7-hexahydro-s-indacene-4-carbonitrile] | ≤ 5 µM
29 | N#Cc1c2c(c(Nc3nnc(S(=O)(=O)c4ccccc4)[nH]3)c3c1CCC3)CCC2 [Example 323, 8-((5-(phenylsulfonyl)-4H-1,2,4-triazol-3-yl)amino)-1,2,3,5,6,7-hexahydro-5-indacene-4-carbonitrile] | ≤ 5 µM
30 | COc1cc(-c2ccc3c(c2Nc2nnc(S(=O)(=O)c4ccc(C(C)(C)O)cc4)[nH]2)CCC3)ccn1 [Example 324, 2-(4-((5-((5-(2-methoxypyridin-4-yl)-2,3-dihydro-1H-inden-4-yl)amino)-4H-1,2,4-triazol-3-yl)sulfonyl)phenyl)propan-2-ol] | ≤ 0.5 µM
31 | NS(=O)(=O)c1cccc(S(=O)(=O)c2nnc(Nc3c4c(cc5c3CCC5)CCC4)[nH]2)c1 [Example 326, 3-((5-((1,2,3,5,6,7-hexahydro-s-indacen-4-yl)amino)-4H-1,2,4-triazol-3-yl)sulfonyl)benzenesulfonamide] | ≤ 5 µM
